Data published in article PMC10789121, “Amine Basicity of Quinoline ATP Synthase Inhibitors Drives Antibacterial Activity against Pseudomonas aeruginosa” (ACS Medicinal Chemistry Letters, 2023).
Values after ≈ are worked out from the molar mass of the structure shown. Values joined by “and” are separate entries in the source; they are usually repeats but may differ in a detail not shown here. Equal values may be shown once. Read-outs that look alike come from different tables or passages of the source.

Columns and labels:
[1] = system: PΔ6 (efflux knockout strain of PA); design: method as in PMID 37922420; conditions: cited from earlier work
[2] = system: PA electron transport chain; design: method as in PMID 37922420; conditions: previously determined; cited from earlier work
[3] = system: BAA 2109 (MDRPA clinical isolate); design: method as in PMID 37922420; conditions: cited from earlier work
PA ATP synthase [4] = target: T1, PA ATP synthase (Pseudomonas aeruginosa, UniProt Q9HT15); design: method as in PMID 37922420; conditions: previously determined; cited from earlier work
T1 construct: a whole operon plasmid that expresses; made in house; host or cells: Escherichia coli DK8 (K-12 strain lacking the unc operon) transformed with pASH20; used as inverted membrane vesicles, not purified

[5] = system: BAA 2108 (MDRPA clinical isolate); design: method as in PMID 37922420; conditions: cited from earlier work
[6] = system: BAA 2110 (MDRPA clinical isolate); design: method as in PMID 37922420; conditions: cited from earlier work
PA 9027 [7] = system: PA 9027; design: method as in PMID 37922420; conditions: cited from earlier work
[8] = system: EC electron transport chain; assay: Electron transport activity (ACMA fluorescence quenching) in E. coli DK8 pASH20 inverted membrane vesicles; type: biochemical, Escherichia coli; conditions: 4 µg/mL
Experimental: (§1) Determination of electron transport activity. As previously described,11 inverted membrane vesicles from PA 9027 or E. coli DK8 pASH20 were added to HMK buffer containing 0.3 µg/mL 9-amino-6-chloro-2-methoxyacridine (ACMA) and 0-64 µg/mL test compound in DMSO. After measurement of baseline ACMA fluorescence for 60 s, redox-driven H+ pumping was initiated by addition of NADH to 0.8 mM, and fluorescence quenching was monitored for 120 s before addition of nigericin to 0.5 µg/mL. Relative activity is reported as the minimum fluorescence value normalized to the maximum fluorescence value following addition of nigericin.

[9] = system: PA electron transport chain; assay: Electron transport activity (ACMA fluorescence quenching) in PA 9027 inverted membrane vesicles; type: biochemical, Pseudomonas aeruginosa; conditions: for PA ETC IC50: PA 9027 inverted membrane vesicles
Excerpt: The assay for PA ATP synthase activity in EC DK8/pASH20 membrane vesicles requires a functional EC ETC, so potent inhibition of the EC ETC by any compound would interfere with the determination of its IC50 for PA ATP synthase. […] Furthermore, potent inhibition of PA ETC could be an alternative mechanism of action for the antibacterial activity of the current series.
as §1

PA ATP synthase [10] = target: T1, PA ATP synthase; assay: Inhibition of NADH-driven PA ATP synthesis activity in DK8/pASH20 inverted membrane vesicles (end-point luciferin/luciferase assay); type: biochemical; conditions: PA ATP synthase IC50 (absolute), NADH-driven ATP synthesis, EC DK8/pASH20 inverted membrane vesicles
[11] = design: method as in earlier work; conditions: value of the C2 functional group; cited from earlier work
[12] = system: PΔ6 (efflux knockout strain of PA); assay: Antimicrobial susceptibility, broth microdilution MIC; type: cell-based; conditions: Pseudomonas aeruginosa, read-out: MIC PΔ6
Experimental: (§2) Pseudomonas aeruginosa (ATCC 9027), Drug-Resistant Pseudomonas aeruginosa from ATCC Panel MP-23 (BAA-2108, BAA-2109, BAA-2110), and Pseudomonas aeruginosa efflux knockout GKCW120 (PD6)14 provided by Zgurskaya and co-workers at the University of Oklahoma.
(§3) Antimicrobial Susceptibility Assay Procedure. Susceptibility testing was performed in biological triplicate, using the broth microdilution method as outlined by the Clinical and Laboratory Standards Institute. Briefly, minimum inhibitory concentrations (MIC) determinations were carried out in 96-well microtiter plates with 2-fold serial dilutions of the compounds from 0 […]
(§4) Briefly, to each well 1 µL of compound in DMSO, 89 µL of TSB, and 10 µL of bacterial inoculum, grown from frozen stock in 10 mL of TSB […]
(§5) for 4-6 hours, were added. […]
(§6) on a Biotek Synergy HTX Multi-mode plate reader. Data was processed by background subtracting the media absorbance and then normalizing the data to full bacterial growth with only vehicle.
(§7) MIC is defined as the lowest concentration of antibiotic or antibiotic/adjuvant combination that achieves ≥ 85% growth inhibition, which corresponds to no visible growth. […]

PA 9027 [13] = assay: as above; type: cell-based; conditions: Pseudomonas aeruginosa, read-out: MIC PA 9027
Experimental: as §2, §3, §4, §5, §6, §7

[14] = system: BAA 2110 (MDRPA clinical isolate); assay: as above; type: cell-based, Pseudomonas aeruginosa; conditions: Pseudomonas aeruginosa, BAA2110; >85% reduction in growth at OD 590 nm; n = 3; read-out: MIC BAA 2110
Experimental: as §2, §3, §4, §5, §6, §7

[15] = system: BAA 2109 (MDRPA clinical isolate); assay: as above; type: cell-based, Pseudomonas aeruginosa; conditions: Pseudomonas aeruginosa, BAA2109; >85% reduction in growth at OD 590 nm; n = 3; read-out: MIC BAA 2109
Experimental: as §2, §3, §4, §5, §6, §7

[16] = system: BAA 2108 (MDRPA clinical isolate); assay: as above; type: cell-based, Pseudomonas aeruginosa; conditions: Pseudomonas aeruginosa, BAA2108; >85% reduction in growth at OD 590 nm; n = 3; read-out: MIC BAA 2108
Experimental: as §2, §3, §4, §5, §6, §7

In the case of `CN(C)Cc1ccc(CNCc2cc3ccccc3nc2SCc2ccccc2)cc1` [Compound 2], the “MIC PΔ6” value [1] is listed as 16 µg/mL (≈ 37.4 µM), the “PA ETC IC50” value [2] is listed as 27 µg/mL and the “MIC BAA 2109” value [3] is listed as over 128 µg/mL. The IC50 (PA ATP synthase [4]) was about 4.68 µM, the “MIC BAA 2108” value [5] was 64 µg/mL (≈ 150 µM) and the “MIC BAA 2110” value [6] was over 128 µg/mL. The “MIC PA 9027” value (PA 9027 [7]) was over 128 µg/mL.
For `Cn1cccc1CCNCc1cc2ccccc2nc1SCc1ccccc1` [Compound 18], the “% EC ETC Inhibition at 4 µg/mL” value [8] was 5%, the “% PA ETC Inhibition at 32 µg/mL” value [9] was 62% and the IC50 (PA ATP synthase [10]) was 12.9 µM and 10.3 µM.
In the case of `CSc1nc2ccccc2cc1CNCCCN(C)C` [Compound 5], the “% EC ETC Inhibition at 4 µg/mL” value [8] is reported as 9%, the “% PA ETC Inhibition at 32 µg/mL” value [9] is reported as 54% and the IC50 (PA ATP synthase [10]) is reported as 149 µM.
For `Cc1cc(C)nc(CCNCc2cc3ccccc3nc2SCc2ccccc2)n1` [Compound 20], the “% EC ETC Inhibition at 4 µg/mL” value [8] was 17%, the “% PA ETC Inhibition at 32 µg/mL” value [9] was 67% and the IC50 (PA ATP synthase [10]) was 7.24 µM.
In the case of `CSc1nc2ccccc2cc1CNCCc1cccn1C` [Compound 17], the “approximate pKa (NH+) of C2 side chain conjugate acid” value (“approximate pKa (NH+)” for short) [11] is given as “∼0.5”, the “% EC ETC Inhibition at 4 µg/mL” value [8] is given as 0% and the “% PA ETC Inhibition at 32 µg/mL” value [9] is given as 65%. The IC50 (PA ATP synthase [10]) was 16.1 µM.
With `CSc1nc2ccccc2cc1CNCCC1CCN(C2CCCC2)CC1` [Compound 15] the “% EC ETC Inhibition at 4 µg/mL” value [8] was 6%, the “PA ETC IC50” value [9] was 8.3 µg/mL and the IC50 (PA ATP synthase [10]) was 54.7 µM.
For `CSc1nc2ccccc2cc1CNCCc1cnc[nH]1` [Compound 21], the “approximate pKa (NH+)” value [11] is given as “∼7”, the “% EC ETC Inhibition at 4 µg/mL” value [8] is given as 5% and the “PA ETC IC50” value [9] is given as 39 µg/mL. It also gave an IC50 (PA ATP synthase [10]) of 53.6 µM.
For `CSc1nc2ccccc2cc1CNCc1ccc(N(C)C)cc1` [Compound 11], the “approximate pKa (NH+)” value [11] is listed as “∼5”, the “% EC ETC Inhibition at 4 µg/mL” value [8] is listed as 4% and the “% PA ETC Inhibition at 4 µg/mL” value ([9]; 4 µg/mL) is listed as 20%. For the same molecule, the IC50 (PA ATP synthase [10]) was 14.8 µM.
For `CN(C)CCCCCNCc1cc2ccccc2nc1SCc1ccccc1` [Compound 10], the MIC [12] is given as 64 µg/mL, the MIC (PA 9027 [13]) is given as over 128 µg/mL and the “approximate pKa (NH+)” value [11] is given as “above 6”. The MIC [14] was 64 µg/mL, the MIC [15] was 128 µg/mL and the MIC [16] was 64 µg/mL. The “% EC ETC Inhibition at 4 µg/mL” value [8] was 14%, the “PA ETC IC50” value [9] was 57 µg/mL and the IC50 (PA ATP synthase [10]) was ~5.08 µM and 5.08 µM.
For `CSc1nc2ccccc2cc1CNCc1ccc(CN(C)C)cc1` [Compound 1], the “MIC PΔ6” value [1] is listed as 64 to 128 µg/mL, the “PA ETC IC50” value [2] is listed as 29 µg/mL and the “MIC BAA 2109” value [3] is listed as 256 µg/mL (≈ 728 µM). The “PA ATP synthase IC50” value (PA ATP synthase [4]) was 30 µg/mL, the “MIC BAA 2108” value [5] was 128 to 256 µg/mL and the “MIC BAA 2110” value [6] was over 256 µg/mL. The “MIC PA 9027” value (PA 9027 [7]) was over 256 µg/mL.
In the case of `CSc1nc2ccccc2cc1CNCCCCCN(C)C` [Compound 9], the “% EC ETC Inhibition at 4 µg/mL” value [8] is reported as 22%, the “% PA ETC Inhibition at 32 µg/mL” value [9] is reported as 74% and the IC50 (PA ATP synthase [10]) is reported as 59.8 µM.
